In US20210236465A1, “METHODS AND COMPOSITIONS FOR TREATING HETEROTOPIC OSSIFICATION” (President and Fellows of Harvard College, priority 2019, published 2021):

Assays:
[1] = system: Gnas^f/f mice after Ad-Cre injection (POH mouse model); test: POH mouse model: Gnas^f/f mice with subcutaneous Ad-Cre injection, ectopic and endogenous bone by μCT
Gnas^-/- SMP cells = test: Osteoblast differentiation (ALP) of Gnas^-/- SMP cells in osteogenic medium; format: cell-based, mouse
Description: (§1) For ALP staining, cells were fixed in 4% PFA for 20 minutes, washed with PBS for three times, then stained with 1-Step NBT/BCIP (Thermo, 34042) for 30 minutes and washed by PBS. There were three biological replicates for each group. ALP staining was quantified as previously described. Cells were scraped into a radioimmunoprecipitation assay (RIPA) buffer (containing 50 mM Tris-HCl pH 7.5, 150 mM NaCl, 5% Glycerol, 1 mM EDTA, 1% NP-40, 0.1% SDS and 0.25% Na-deoxycholate) and centrifuged. The enzymatic alkaline phosphatase activity in the supernatant of cell lysate was assayed by measuring the chromogenic p-nitrophenol formed from the enzymatic hydrolysis of p-nitrophenyl phosphate (the substrate) by light absorbance at 405 nm. The alkaline phosphatase activity was normalized to total protein, as measured by BCA protein assay. All experiments were performed in triplicates and means and standard deviations were calculated.
Subcutaneous mesenchymal progenitor (SMP) cells are potential osteoprogenitor cells within the subcutaneous connective tissue which can be induced to become osteoblast cells and adipocytes. Subcutaneous skin tissue containing adipose deposits was removed under sterile conditions and washed in PBS supplemented with 100 U/mL penicillin and 100 μg/mL streptomycin on ice. The tissue was then minced, and digested with 1 mg/ml collagenase type I and 0.5% Trypsin in 0.1% BSA for 70 minutes at 37° C. The digested tissue was centrifuged at 500 g for 10 min and the pellet was carefully collected after aspirating off the floating fat depots. After a second centrifugation at 500 g for 10 min, the cellular pellet was filtered through a 100 μm mesh filter to remove debris.
(§2) Cre recombinase adenovirus from Berk (˜10^12 pfu/ml) were diluted 1:50 in 100 μl PBS solution and injected into the subcutaneous region of the limbs of 4 weeks old mice. Six weeks, 3 months or 8 months after injection, the limbs were harvested from euthanized mice and fixed in 4% PFA overnight. Ectopic bone formation was analyzed by μCT and skeletal preparation. The Cre recombinase or GFP adenovirus (˜10^10 pfu/ml) was diluted 1:2000 to infect cells in vitro. Four hours later, fresh medium was added and 24 hours later, the medium was changed.

[2] = system: WT mice with Achilles tendon puncture (ATP); test: Achilles tendon puncture (ATP) injury-induced HO mouse model, μCT; format: in vivo; conditions: for HO formation (ectopic bone volume): from the day of ATP, vs vehicle
Source text: For ATP mouse model, 4-week-old male mice were anesthetized. A 27-gauge needle was punctured into the Achilles tendon body from the lateral aspect percutaneously and this process was repeated six times at different parts of Achilles tendon body for each mouse. For sham operation, the needle was punctured through the skin without touching the Achilles tendons.
(§3) Mice were fixed overnight in 4% PFA and transferred to 70% ethanol, then analyzed by high-resolution μCT using a deskop μCT (Scanco Medical) according to recommended guidelines. The scanner was set at a voltage of 55 kV and a resolution of 12.3 μm per pixel. The images were reconstructed, analyzed for HO bone volume and endogenous bone mass. Briefly cortical bone parameters and cancellous bone microarchitecture from tibia were determined using a 7-μm isotropic voxel size. For ectopic bone, bone volume was measured. For cancellous bone, bone volume fraction (bone volume per tissue volume [BV/TV]) (percentage), trabecular number (Tb.N) (per millimeter), trabecular thickness (Tb.Th) (millimeter), trabecular separation (Tb.Sp) (millimeter) was analyzed. For cortical bone, cortical area fraction (Ct. BV/TV) (percentage), cortical bone density (Ct. BMD) (mgHA/cm3) were evaluated.

[3] = system: ACVR1^R206H; ScxCre mice (FOP model); test: FOP mouse model ScxCre; ACVR1^R206H, HO volume by μCT; format: in vivo; conditions: VP 4 mg/kg/d IP, 5 days per week, starting at 6 weeks of age for 8 weeks
Description: The ACVR1^FlExR206H mice conditionally express ACVR1^R206H/+ knock-in alleles, were kindly provided by Dr. Aris Economides (Regeneron Pharmaceuticals, Inc.), mated with ScxCre mice, to yield ScxCre; ACVR1^FlEx206H/+ mice, which represent a FOP mouse model that develops spontaneous HO of tendons, ligaments, and joints. These mice were treated with Verteporfin (VP) (4 mg/kg/d intraperitoneal (IP) injection, 5 days per week) or an equal volume of PBS for 8 weeks, starting at 6 weeks of age. […]
as §3, with “The scanner was set at a voltage of 55 kV and a resolution of 12.3 μm per pixel.” left out

ACVR1^Q207D/+ SMPs = ACVR1^Q207D/+ SMPs with Ad-Cre infection: ALP activity and QRT-PCR; format: cell-based, mouse; conditions: VP 200 ng/ml for 7 days
Description: as §1
The skin was removed from the hindlimb covering the tibia and the subcutaneous tissue area (5 mm (1)×5 mm (w)×4 mm (h)) where the Ad-Cre were locally injected was isolated. Subcutaneous connective tissue and some muscle cells surrounding the ectopic bone would have been included. Total RNA was isolated first with Trizol (Invitrogen). […] PCR product accumulation was detected using Sybr green (Invitrogen; Platinum SYBR Green qPCR SuperMix-UDG). […]

Shh protein = Shh protein levels by Western blotting in Gnas^f/f SMPs after Ad-Cre infection; format: cell-based, mouse; conditions: 200 ng/ml for 7 days after Ad-Cre infection (FIG. 4B)
Description: as §2
Tissue or cell lysates were prepared using a lysis buffer [20 mM Tris (pH 7.4), 150 mM NaCl, 1% Tri-ton X-100, 1 mM EDTA, 1 mM EGTA, 2.5 mM sodium pyrophosphate, 1 mM β-glycerophosphate, 1 mM sodium orthovanadate] or RIPA buffer (Santa Cruz Biotechnology), respectively, containing protease inhibitor mixture (Roche). Total cell lysates were analyzed by Western blotting according to standard procedures.

[4] = Gnas^-/- SMP cells cultured with the inhibitors for 7 days (FIG. 11G)

With CC(C)c1cnn2c(NCc3ccccc3)cc(NC[C@H]3CCNC[C@@H]3O)nc12 [CT7001] the “HO (ectopic bone volume, μCT)” value ([1]; CT7001 10 mg/kg gavage every other day after Ad-Cre injection) was “reduced HO” and the “osteoblast differentiation (ALP)” value (Gnas^-/- SMP cells; [4]) was “reduced”.
With CN(C)C/C=C/C(=O)Nc1ccc(C(=O)Nc2cccc(Nc3ncc(Cl)c(-c4c[nH]c5ccccc45)n3)c2)cc1 [THZ1] the “HO (ectopic bone volume, μCT)” value ([1]; THZ1 10 mg/kg IP injection 5 days a week after Ad-Cre injection) was “reduced HO”, the “HO formation (ectopic bone volume)” value ([2]; THZ1 (1 mM) applied on the skin of the trauma area) was “completely blocked” and the “osteoblast differentiation (ALP)” value (Gnas^-/- SMP cells; [4]) was “reduced”.
With Verteporfin [VP] the “tendon, ligament, and intra-articular HO (HO volume)” value [3] was “significantly reduced”, the endogenous bone mass ([1]; 3 months of non-stop VP treatment (IP 2.5 mg/kg)) was “not reduced” and the “endogenous tibia bone mass” value ([1]; 6 weeks after VP IP injection (2.5 mg/kg, 5 days per week), treated vs untreated) was “no significant change”. For the same compound, the “HO after VP withdrawal” value ([1]; VP IP 2.5 mg/kg for 6 weeks from Ad-Cre injection, then no treatment, harvested 3 months after Ad-Cre) was “significantly reduced”, the “already formed HO (ectopic bone volume)” value ([1]; VP IP 2.5 mg/kg started 6 weeks after Ad-Cre injection, 5 times per week for 6 weeks, vs untreated) was “obviously reduced” and the “HO (ectopic bone volume, μCT)” value ([1]; VP IP injection (2.5 mg/kg) 5 days a week for 6 weeks, immediately after Ad-Cre injection) was “more effective HO blockage”. For the same compound, the “HO (ectopic bone volume, μCT)” value ([1]; VP topically applied (0.2 mg/ml; 200 μg/ml) 5 days per week for 6 weeks, immediately after Ad-Cre injection) was “HO reduction”, the “endogenous bone mass (tibia bones)” value ([2]; VP IP 2.5 mg/kg 5 days per week, VP treated vs control) was “no significant difference” and the “HO formation (ectopic bone volume)” value ([2]; VP higher dose 200 μg/ml applied on the skin of the trauma area) was “completely blocked”. The “HO formation (ectopic bone volume)” value ([2]; VP low dose 20 μg/ml applied on the skin of the trauma area) was “reduced”, the “osteoblast differentiation (ALP)” value (ACVR1^Q207D/+ SMPs) was “reduced” and the “expression of Yap and Hh target genes, Shh and Ihh” value (ACVR1^Q207D/+ SMPs; QRT-PCR) was “reduced”. For the same compound, the “osteoblast differentiation (ALP)” value (Gnas^-/- SMP cells; 200 ng/ml for 7 days after Ad-Cre infection (FIG. 4A)) was “decreased”, the “osteoblast differentiation (ALP)” value (Gnas^-/- SMP cells; [4]) was “reduced” and the Shh protein levels (Shh protein) was “decreased”.
